Measurements reported in the NIST ThermoML archive (doi:10.1016/j.jct.2014.03.027).
± gives the expanded uncertainty stated by the source.

Assay: molar enthalpy of vaporization or sublimation
Conditions: 298.15 K, Static calorimetry

molar enthalpy (Liquid) [kcal/mol]	molar enthalpy (Crystal) [kcal/mol]	Compound
15.9 ± 0.287	–	COc1ccccc1C(C)=O [2'-methoxyacetophenone]
–	21 ± 0.335	COc1ccc(C(C)=O)cc1 [4'-methoxyacetophenone]
16.2 ± 0.287	–	COc1cccc(C(C)=O)c1 [3'-methoxyacetophenone]
